The test system of experiment [1] is N-end rule pathway of targeted proteolysis (NERP). Nature of the experiment: In vitro protein stability, heterologous rabbit reticulocyte lysate assay (TNT T7 Coupled Reticulocyte Lysate system, anti-HA immunoblot). Type of experiment: biochemical. The note with it: for effect on in vitro stability of Arabidopsis Group VII ERFs: HA-tagged ERFs in reticulocyte lysate, 100 μM MG132 or 1 mM dipeptides; for MC-GUS degradation in the presence of the inhibitor: MC-GUS produced in rabbit reticulocyte lysate. The protocol: Protein stability analyses. Full length cDNAs were PCR amplified from either Arabidopsis thaliana or Oryza sativa L. (cv. M202 (Sub1)). N-terminal mutations were introduced using a specific forward primer. For in vitro assays, cDNAs were cloned into a modified version of the pTNT vector (Promega) to produce C-terminal HA fusions. Stability assays were performed using the TNT T7 Coupled Reticulocyte Lysate system (Promega), essentially as described previously^23. For in vivo analysis of EIRE-HA proteins, cDNAs were cloned into pE2c, mobilized into pB2GW7 and transformed into Arabidopsis using the floral dip method. To Assess relative protein stability, equal amounts of total protein extracted from 7-day old T3 homozygous seedlings were analyzed by Western blot, and cDNA synthesized from total RNA was used as a template for semi-quantitative PCR.
In vitro analysis of protein stability: To generate Arabidopsis and rice protein-HA fusions driven by the T7 promoter, cDNAs were PCR amplified from Arabidopsis total cDNA or submerged rice cDNA (M202 (Sub1); as described^3 and ligated into a modified version of the pTNT […] expression vector (pTNT3xHA). N-terminal mutations were incorporated by changing the forward primer sequences accordingly (Table 1). Proteins were expressed in vitro using the TNT T7 Coupled Reticulocyte Lysate system (Promega) according to manufacturer's guidelines, using 500 ng plasmid template. Where appropriate, 100 μM MG132 or 1 mM dipeptides (arg-β-ala or ala-ala; Sigma-Aldrich) and […] Bestatin (Sigma-Aldrich) were added. Reactions were incubated at 30° C., and samples were taken at appropriate time points before mixing with protein loading dye to terminate protein synthesis. Equal amounts of each reaction were subjected to anti-HA immunoblot analysis.
Immunoblotting: Proteins resolved by SDS-PAGE were transferred to PVDF using a MiniTrans-Blot electrophoretic transfer cell (Bio-Rad). Membranes were probed with primary antibodies at the following titres: anti-HA (Sigma-Aldrich), 1:1000; anti-α-tubulin (Sigma-Aldrich), 1:5,000, or anti-ribosomal protein 5636, (1:5,000). HRP conjugated anti-mouse secondary antibody (Santa Cruz) was used at a titre of 1:10,000. Immunoblots were developed to film using ECL Western blotting substrate (Pierce). Alignment of MC-ERF proteins from Arabidopsis and Rice: Rice and Arabidopsis ERF proteins starting with the sequence MC- were aligned and phylogenetic relationships observed using CLUSTALW37.
We investigated the possibility that all Arabidopsis Group VII ERFs as well as rice SUB1A-1 were NERP substrates.

Experiment [2] relates to MC-GUS. Nature of the experiment: Western analysis of MC-GUS protein levels in seedlings treated with cPTIO. Type of experiment: in vivo, Arabidopsis. The note with it: WT Col-0 seedlings treated with cPTIO. An excerpt:
FIG. 14C Stability of MC-GUS in Col-0 is related to NO.

Experiment [3] deals with HRE2. Description: Western blot of HRE2 protein levels in vivo after cPTIO treatment. More on the design: species or system Arabidopsis. The note with it: 35S CaMV promoter. The source says:
FIG. 14D Stability of the physiological substrate HRE2 is controlled by NO. Western blot showing levels of HRE2 protein in-vivo (constitutive gene transcription produced from the 35S CaMV promoter).
In general terms: Immunoblotting shows a protein as a band on a membrane.

The subject of experiment [4] is maplA mutant seeds. Nature of the experiment: Seed sensitivity to ABA on germination in the presence of fumagillin. Type of experiment: in vivo, Arabidopsis. The source says: FIG. 13B Proteins initiating MC control seed sensitivity to ABA.

Peptide text beside a SMILES is read from it. * marks the point of attachment. Cbz = O=C(OCc1ccccc1)*

On to `CC(C)C[C@@H](C=O)NC(=O)[C@H](CC(C)C)NC(=O)[C@H](CC(C)C)NC(=O)OCc1ccccc1` [MG132] (Cbz-Leu-Leu-Leu-aldehyde), for which, in experiment [1], the “effect on in vitro stability of Arabidopsis Group VII ERFs” value is listed as “stability was enhanced” and the “MC-GUS degradation in the presence of the inhibitor” value is “not degraded”. With `CC1(C)N([O])C(c2ccc(C(=O)O)cc2)=[N+]([O-])C1(C)C` [cPTIO], the “effect on MC-GUS protein level” value in experiment [2] was “MC-GUS protein accumulates”. Also, the “effect on HRE2 protein level” value in experiment [3] is listed as “stabilises the protein”. Regarding `CO[C@@H]1[C@H](OC(=O)/C=C/C=C/C=C/C=C/C(=O)O)CC[C@]2(CO2)[C@H]1[C@@]1(C)O[C@@H]1CC=C(C)C` [fumagillin], the “seed sensitivity to ABA when germinated in the presence of fumagillin” value in experiment [4] is “hypersensitive to ABA”. As to Arg-Ala, in experiment [1], the “effect on in vitro stability of Arabidopsis Group VII ERFs” value is “stability was enhanced” and the “MC-GUS degradation in the presence of the inhibitor” value is reported as “not degraded”.

The record behind these values is patent US20170088851A1, “METHODS FOR IMPROVING ABIOTIC STRESS RESPONSE” (The Regents of the University of California, priority 2011, published 2017).
